Laboratory results as given in patent publication US20250000987A1, “RETINOIC ACID COMPOUND, PHARMACEUTICAL COMPOSITION THEREOF AND USE THEREOF” (Mastery Biotech CO., LTD., priority 2022, published 2025).

Key:
SARS-COV-2 = conditions: Example 2; 0.35 mg/kg intranasally twice daily, 3-day treatment; versus isotretinoin and liposome-encapsulated isotretinoin; FIG. 3
From the text: Golden Syrian hamsters (aged 5-6 weeks old and having an average weight of about 100 g) were obtained from the National Laboratory Animal Center (Taipei, Taiwan). The hamsters were housed in an animal room under specific-pathogen-free (SPF) conditions commonly applied in the art. Furthermore, water and feed were provided ad libitum for all the hamsters.
The hamsters were infected with SARS-COV-2 (obtained from P3 Lab, the Genomics Research Center, Academia Sinica; WuHan wild type) in phosphate buffered saline (PBS) through intranasal inoculation at 1×10^4 plaque-forming units (PFU) on 12:00 PM so as to establish a SARS-COV-2 animal model.
The infected hamsters obtained as mentioned above were divided into the following four groups (n=5 per group): a control group (abbreviated as “Control”), two comparative groups (respectively abbreviated as “Comparative_1” and “Comparative_2”) and one experimental group (abbreviated as “Experimental_1”). […]
After the 3-day treatment, the hamsters were sacrificed, and the lungs thereof were collected for live viral load measurement by TCID50 assay in Vero E6 cells. The virus titer was determined in terms of the 50% tissue culture infectious dose (TCID50) using the Reed-Muench method. […]
The experimental data were analyzed by Tukey's test so as to evaluate the differences between the groups. […]

SARS-COV-2 PLpro = SARS-COV-2 PLpro (Severe acute respiratory syndrome coronavirus 2, UniProt P0DTD1); format: biochemical

How did the “TCID50 (lung virus titer)” value (SARS-COV-2) turn out when `CC1=C(/C=C/C(C)=C/C=C/C(C)=C\C(=O)NCCCO[C@@H]2O[C@H](CO)[C@H](O)[C@H](O)[C@H]2O)C(C)(C)CCC1` [Galactose-modified isotretinoin, (2Z,4E,6E,8E)-3,7-dimethyl-N-(3-(((2R,3R,4S,5R,6R)-3,4,5-trihydroxy-6-(hydroxymethyl)tetrahydro-2H-pyran-2-yl)oxy)propyl)-9-(2,6,6-trimethylcyclohex-1-en-1-yl) nona-2,4,6,8-tetraenamide] was run?
The value was “significantly lower”.

And the “Inhibition percentage (%)” value (SARS-COV-2 PLpro; Example 1, 50 μM inhibiting agent, PLpro 0.9 μM, preincubation 30 minutes, 30° C., 300 seconds, mean±standard deviation)?
The value was 34.21 ± 0.17%.

What about the “inhibiting the enzymatic activity of PLpro, comparison in words” value (SARS-COV-2 PLpro; versus isotretinoin or the individual components, FIG. 2, FIG. 11) of the same molecule?
The value was “more effective than isotretinoin only”.
